Measured values from ChEMBL document CHEMBL3407463 (Eur J Med Chem, 2014).
Activity calls are given as the source filed them. The calls are words filed in the database; no cut-off is given here.

Experiments:
MCF7 [1] = assay: Cytotoxicity against human placental microsome aromatase expressing human MCF7 cells assessed as reduction in cell viability at 1 to 2.5 uM after 2 days by MTT assay in presence of testosterone; assay type: functional
MCF7 [2] = assay: Cytotoxicity against human placental microsome aromatase expressing human MCF7 cells assessed as reduction in cell viability at 5 to 15 uM after 2 days by MTT assay in presence of testosterone; assay type: functional, cell-based
MCF7 [3] = assay: Cytotoxicity against human placental microsome aromatase expressing human MCF7 cells at 1 to 15 uM after 2 to 6 days by LDH assay in presence of testosterone; assay type: functional, cell-based
MCF7 [4] = assay: Cytotoxicity against human placental microsome aromatase expressing human MCF7 cells assessed as reduction in cell viability up to 15 uM after 3 to 6 days by MTT assay in presence of estradiol; assay type: functional, cell-based
MCF7 [5] = assay: Cytotoxicity against human placental microsome aromatase expressing human MCF7 cells assessed as reduction in cell viability up to 15 uM after 3 to 6 days by MTT assay in presence of testosterone; assay type: functional, cell-based
MCF7 [6] = assay: Cytotoxicity against human placental microsome aromatase expressing human MCF7 cells after 2 to 6 days by MTT assay in presence of testosterone; assay type: functional, cell-based
MCF7 [7] = assay: Cytotoxicity against human placental microsome aromatase expressing human MCF7 cells at 1 to 15 uM by MTT assay in presence of testosterone; assay type: functional, cell-based; conditions: TDE = time-dependent effect
Aromatase [8] = target: T1, Aromatase (Homo sapiens, UniProt P11511); assay: Inhibition of human placental microsome aromatase using [1beta-3H] androstenedione as substrate at 2 uM after 15 mins by liquid scintillation counting; conditions: 0.25 h
T1 sequence (P11511 whole entry): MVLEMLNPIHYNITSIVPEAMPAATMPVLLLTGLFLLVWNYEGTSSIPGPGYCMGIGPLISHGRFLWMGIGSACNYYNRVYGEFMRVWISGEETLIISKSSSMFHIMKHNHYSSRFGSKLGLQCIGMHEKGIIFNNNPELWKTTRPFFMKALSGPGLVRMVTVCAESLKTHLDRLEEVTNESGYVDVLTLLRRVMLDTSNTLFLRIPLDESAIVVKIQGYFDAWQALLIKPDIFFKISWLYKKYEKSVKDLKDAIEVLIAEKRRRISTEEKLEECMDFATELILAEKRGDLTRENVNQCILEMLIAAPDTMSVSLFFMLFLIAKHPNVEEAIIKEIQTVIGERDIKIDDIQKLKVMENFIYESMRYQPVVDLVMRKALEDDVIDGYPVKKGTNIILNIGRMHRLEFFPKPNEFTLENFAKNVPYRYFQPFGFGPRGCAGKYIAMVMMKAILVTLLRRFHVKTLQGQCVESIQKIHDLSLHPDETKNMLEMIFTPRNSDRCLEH

Aromatase [9] = target: T1, Aromatase; assay: Inhibition of human placental microsome aromatase using [1beta-3H] androstenedione as substrate after 15 mins by liquid scintillation counting
Aromatase [10] = target: T1, Aromatase; assay: Inhibition of human […] aromatase expressed in human MCF7 cells using [1beta-3H] androstenedione as substrate at 10 uM after 1 hr by liquid scintillation counting; assay type: cell-based
Aromatase [11] = target: T1, Aromatase; assay: Inhibition of human […] aromatase expressed in human MCF7 cells using [1beta-3H] androstenedione as substrate after 1 hr by liquid scintillation counting; assay type: cell-based
MCF7 [12] = assay: Cytotoxicity against human placental microsome aromatase expressing human MCF7 cells at 5 to 15 uM after 2 to 3 days by LDH assay in presence of testosterone; assay type: functional, cell-based
MCF7 [13] = assay: Cytotoxicity against human placental microsome aromatase expressing human MCF7 cells assessed as reduction in cell viability up to 5 uM after 3 to 6 days by MTT assay in presence of estradiol; assay type: functional, cell-based
MCF7 [14] = assay: Cytotoxicity against human placental microsome aromatase expressing human MCF7 cells at 0.01 to 15 uM by MTT assay in presence of testosterone; assay type: functional, cell-based; conditions: TDE = time-dependent effect

Row | SMILES | Activity (MCF7 [1]) | Activity (MCF7 [2]) | Activity (MCF7 [3]) | Activity (MCF7 [4]) | Activity (MCF7 [5]) | Activity (MCF7 [6]) | Activity (MCF7 [7]) | inhibition at 2 µM (Aromatase [8]) | IC50 (Aromatase [9]) | inhibition at 10 µM (Aromatase [10]) | IC50 (Aromatase [11]) | Activity (MCF7 [12]) | Activity (MCF7 [13]) | Activity (MCF7 [14])
1 | C=C1C[C@H]2[C@@H]3CC[C@H](O)[C@@]3(C)CC[C@@H]2[C@@]2(C)C=CC(=O)C=C12 | Active | inactive | inactive | Active | Active | Dose-dependent effect | tde | – | – | – | – | – | – | –
2 | C[C@]12C=CC(=O)C=C1[C@@]1(CO1)C[C@@H]1[C@@H]2CC[C@]2(C)C(=O)CC[C@@H]12 | Active | inactive | inactive | Active | – | Dose-dependent effect | tde | 91.7% | 0.62 µM | 95.3% | 0.73 µM | – | – | –
3 | C=C1C[C@@H]2[C@H](CC[C@]3(C)C(=O)CC[C@@H]23)[C@]2(C)C1=CC(=O)[C@@H]1O[C@@H]12 | <25% | – | – | – | – | Dose-dependent effect | – | 86.8% | 0.81 µM | 88.6% | 1.18 µM | Active | Active | tde
4 | C[C@]12C=CC(=O)C=C1C(CO)=C[C@@H]1[C@@H]2CC[C@]2(C)C(=O)CC[C@@H]12 | Active | inactive | inactive | Active | – | Dose-dependent effect | tde | 81% | 0.67 µM | 84% | 0.98 µM | – | – | –
